Assay results taken from patent US8557958B1, “Compositions and methods for treatment of diabetes” (Tarix Pharmaceuticals Ltd., priority 2012, dated 2013).
Entries after “also recorded” stand apart in the source; their conditions may differ. Bridge positions count the residues as written; N and C are the ends. Ends that are not written are not given here.

Legend:
[1] = tested on: streptozotocin (STZ) induced diabetic mouse model; experiment: Blood glucose in STZ induced diabetic mouse model (Example 2); assay type: in vivo, mouse (C57Bl/6); settings: for Blood Glucose (Mean): 50 μg/kg SC once daily; for Blood glucose levels as compared to vehicle treated group: 50 μg/kg body weight SC for twenty eight days
Experimental: C57Bl/6 female mice, 6-7 weeks old were used for the study and conditions were the same as for Example 1 above unless otherwise specified. Following acclimatization, mice were dosed intraperitoneally (IP) with 50 mg/kg STZ solubilized in 0.05 M sodium citrate buffer at a volume of 100 μl per mouse for five consecutive days. Blood Glucose levels were monitored on day 6 post STZ using Accu check glucose meter. Mice were grouped having average blood glucose levels of 200 mg/dL. There were three groups of ten mice each. Mice were dosed subcutaneously with Linear PanCyte (SEQ ID NO:6), PanCyte or vehicle for twenty-eight days. […]
Linear PanCyte and PanCyte were prepared in saline and administrated subcutaneously at a dose volume of 100 μl/mouse daily for twenty-eight days. Dosing solutions were prepared fresh every three days.
The blood glucose level was lowest in the groups treated with PanCyte 50 μg/kg followed by Linear-PanCyte 50 μg/kg.

[2] = tested on: streptozotocin (STZ) induced diabetic mouse model; experiment: Blood glucose in STZ induced diabetic mouse model (Example 1); assay type: in vivo, mouse (C57Bl/6); settings: 50 and 500 μg/kg body weight; monitored 3×/week for 4 weeks post STZ; FIG. 1
Text: Streptozotocin is a widely used chemical agent for producing Type-I Diabetes in experimental animals. The chemical is thought to cause Diabetes by direct action on the pancreatic beta cells and inhibits the insulin secretory mechanism. Depending upon the dosing regimen, streptozotocin can cause a mild, moderate, or severe diabetic condition.
C57Bl/6 female, 7-8 weeks old were used for the study. Upon arrival, mice were 6 weeks of age. All the mice were obtained from The Jackson Laboratory, Bar Harbor, Me. 04609, USA.
(§1) Following acclimatization, mice were dosed intraperitoneally (IP) with 50 mg/kg STZ solubilized in 0.05 M sodium citrate at a volume of 100 μl per mouse for five consecutive days. Blood Glucose levels were monitored beginning day 4 post STZ using a glucose meter (Accu-Chek Advantage from Roche). On day six (after five days of STZ injection) mice were grouped into four groups having average blood glucose levels of 200 mg/dL. Two groups were dosed with PanCyte (SEQ ID NO:22) 50 and 500 μg/kg body weight respectively, one group was dosed with TXA-127 (SEQ ID NO:1) 500 ug/kg, and one group was dosed with PBS as vehicle control.
Blood glucose was be monitored 3×/week for 4 weeks post STZ. Blood glucose levels was be monitored using a glucose meter by placing a drop of blood directly on to the meter strip, and measuring according to manufacturer's instructions.

[3] = tested on: streptozotocin (STZ) induced diabetic mouse model; experiment: Plasma insulin levels by mouse insulin ELISA in STZ induced diabetic mouse model (Example 1); assay type: in vivo, mouse (C57Bl/6); settings: for Plasma insulin levels as compared to vehicle treated control: days 14 and 28; for Insulin (Mean): plasma
Experimental: as §1
Plasma insulin levels were measured on days 14 and 28 after treatment. Blood samples (approximately 50 to 100 ul) were collected and processed for plasma by centrifugation. Plasma samples were then used for the measurement of insulin levels using a mouse sensitive insulin ELISA kit (ALPCO Diagnostic), according the to manufacturer's instructions.

adipocytes = settings: administered directly to adipocytes in vitro; Liu, C. et al. 2011; cited from earlier work
diabetic mouse model = settings: Bindom et al. 2010; cited from earlier work
[4] = dose 500 μg (500 μg/kg body weight), day 14 after treatment
[5] = dose 500 μg (500 μg/kg body weight), day 28 after treatment

Substance | Blood Glucose (Mean) ([1]; day 1) [mg/dL] | Blood Glucose (Mean) ([1]; day 3) [mg/dL] | Blood Glucose (Mean) ([1]; day 5) [mg/dL] | Blood Glucose (Mean) ([1]; day 8) [mg/dL] | Blood Glucose (Mean) ([1]; day 10) [mg/dL] | Blood Glucose (Mean) ([1]; day 12) [mg/dL] | Blood Glucose (Mean) ([1]; day 15) [mg/dL] | Blood Glucose (Mean) ([1]; day 17) [mg/dL] | Blood Glucose (Mean) ([1]; day 19) [mg/dL] | Blood Glucose (Mean) ([1]; day 22) [mg/dL] | Blood Glucose (Mean) ([1]; day 24) [mg/dL] | Blood Glucose (Mean) ([1]; day 26) [mg/dL] | Blood glucose levels as compared to vehicle treated group [1] | Plasma insulin levels as compared to vehicle treated control ([3]; 500 ug/kg weight) | Insulin (Mean) [3, 4] [ng/mL] | Insulin (Mean) [3, 5] [ng/mL] | other results
Asp^1-Arg^2-Val^3-Ser^4-Ile^5-His^6-Cys^7 [Linear-PanCyte] (DRVSIHC; linear) | 222.8 | 202.2 | 220.7 | 248.5 | 252.1 | 276.1 | 278.6 | 269.3 | 280.7 | 266.2 | 256.3 | 253 | Significant differences; also recorded: lowered blood glucose levels significantly |  |  |  | 
Asp^1-Arg^2-Val^3-Ser^4-Ile^5-His^6-Cys^7 [PanCyte] (DRVSIHC; bridge 4-7) | 223 | 205.3 | 197.8 | 213.2 | 230.7 | 234.8 | 232.5 | 240.3 | 230 | 237.1 | 237.3 | 232.6 | Significant differences; also recorded: lowered blood glucose levels significantly | significantly higher levels of insulin | 1.016 | 0.902 | Blood glucose levels [2]: decreased blood glucose levels; Plasma insulin levels as compared to vehicle treated control ([3]; 50 ug/kg weight): significantly higher levels of insulin; Insulin (Mean) ([3]; dose 50 μg (50 μg/kg body weight), day 14 after treatment): 1.217 ng/mL; Insulin (Mean) ([3]; dose 50 μg (50 μg/kg body weight), day 28 after treatment): 1.244 ng/mL
Asp^1-Arg^2-Val^3-Tyr^4-Ile^5-His^6-Pro^7 [TXA-127] |  |  |  |  |  |  |  |  |  |  |  |  |  | significantly higher levels of insulin | 1.097 | 0.954 | Glucose uptake (adipocytes): increased glucose uptake
D-Ala^7-Ang-(1-7) |  |  |  |  |  |  |  |  |  |  |  |  |  |  |  |  | Effect on the decrease in blood glucose and increase in insulin levels seen with ACE2 expression (diabetic mouse model): blocked the decrease in blood glucose
